According to US8076332B2, “N- (2-aminophenyl) benzamide derivative having urea structure” (Santen Pharmaceutical Co., Ltd., priority 2006, dated 2011):

Test system: human trabecular meshwork cell line (TM-1 cells)
Assay: Test for evaluation of effect of morphological change on trabecular meshwork cells (cell shape index, CSI)
Assay type: cell-based
Details: final concentration 10 μM, incubation 24 hours, CSI=4π×(Cell Area)/(Cell Perimeter)^2, average per group, Control 0.730
Experimental: 1. Test for Evaluation of Effect of Morphological Change on Trabecular Meshwork Cells
As a method for evaluating a cellular morphological change, an evaluation system using the cell shape index (hereinafter referred to as “CSI”) as an index has been reported in The Journal of Clinical Investigation, 103, 1141-1150 (1999). Therefore, according to the method described in the above document, an effect of morphological change of the present compounds on trabecular meshwork cells was evaluated.
A human trabecular meshwork cell line (hereinafter referred to as “TM-1 cells”) reported in Investigative Opthalmology & Visual Science, 43, 151-161 (2002) was used.
Culture medium 1: A reagent was prepared by adding fetal bovine serum (10%), L-glutamine (2 mM), amphotericin B (2.5 μg/mL), and gentamicin (25 μg/mL) to Dulbecco's modified Eagle medium (hereinafter referred to as “D-MEM”).
Culture medium 2: Fetal bovine serum (3%), L-glutamine (2 mM), amphotericin B (2.5 μg/mL), and gentamicin (25 μg/mL) were added to D-MEM.
Cell staining liquid: A mixed liquid of Calcein-AM (16 μM) and Hoechst 33342 (40 μM) was prepared by diluting a Calcein-AM solution (cytoplasmic staining reagent, manufactured by Dojindo Laboratories) and a Hoechst 33342 solution (nuclear staining reagent, manufactured by Dojindo Laboratories) with D-MEM containing L-glutamine (2 mM), amphotericin B (2.5 μg/mL), and gentamicin (25 μg/mL).
TM-1 cells subcultured at 37° C. in a 8% carbon dioxide gas atmosphere were treated with a trypsin/EDTA solution (0.05% trypsin and 0.53 mM tetrasodium ethylenediaminetetraacetate) at 24 hours before performing a drug treatment mentioned below and seeded on a 96-well culture plate. The culture medium 1 was used for the subculture of the cells. The culture medium 2 was used for the cell culture after seeding the cells on the plate.
A test compound was dissolved in dimethyl sulfoxide, whereby a 5 mM solution was prepared. Then, the resulting solution was diluted with the culture medium 2, whereby a 200 μM test compound solution was prepared.
It has been reported that Y-27632 which is a Rho kinase inhibitor induces a morphological change in trabecular meshwork cells in Investigative Ophthalmology & Visual Science, 42, 137-144 (2001). Therefore, Y-27632 (produced according to the method described in WO 90/05723) was used as a positive control, and dissolved in dimethyl sulfoxide in the same manner as the test compound, whereby a 5 mM solution was prepared, and then, the resulting solution was diluted with the culture medium 2, whereby a 200 μM positive control compound solution was prepared.
1) To a 96-well culture plate, a solution of TM-1 cells adjusted to a cell density of […] was added in an amount of 95 μL (1.5×10^4 cells) per well.
2) Incubation was performed at 37° C. in a 8% carbon dioxide gas atmosphere for 24 hours.
3) The test compound solution or positive control compound solution was added in an amount of 5 μL per well (the final concentration of the test compound or positive control compound was 10 μM). As a control, the culture medium 2 containing dimethyl sulfoxide (4%) was added in an amount of 5 μL per well.
4) Incubation was performed at 37° C. in a 8% carbon dioxide gas atmosphere for 24 hours.
5) The cell staining liquid was added in an amount of 10 μL per well.
6) Incubation was performed at 37° C. in a 8% carbon dioxide gas atmosphere for 1 hour to stain the cells.
7) A 37% formaldehyde solution was added in an amount of 10 μL per well.
8) Incubation was performed at room temperature for 1 hour to fix the cells.
9) Washing with phosphate-buffered saline was performed.
10) Using Array Scan Vti HCS reader (manufactured by Cellomics), images of stained cells magnified with a 20 times objective lens were captured in 80 fields (10 fields×8 wells) per test compound addition group.
11) CSI was calculated for each cell and an average value was obtained for each test compound addition group. […]

SMILES: CN(C)CCN(Cc1ccc(C(=O)Nc2ccccc2N)cc1)C(=O)Nc1ccccc1 [Compound 1-2, N-(2-Aminophenyl)-4-[1-(2-dimethylaminoerthyl)-3-phenyl-ureidomethyl]benzamide]
- CSI: 0.599

SMILES: CN(C)CCN(Cc1ccc(C(=O)Nc2ccccc2N)cc1)C(=O)NCCc1ccccc1 [Compound 1-4, N-(2-Aminophenyl)-4-[1-(2-dimethylaminoethyl)-3-phenethylureidomethyl]benz-amide]
- CSI: 0.545

SMILES: CN(C)CCN(Cc1ccc(C(=O)Nc2ccccc2N)cc1)C(=O)NCc1ccccc1 [Compound 1-5, N-(2-Aminophenyl)-4-[3-benzyl-1-(2-dimethylaminoethyl)ureidomethyl]benzamide]
- CSI: 0.636

SMILES: Nc1ccccc1NC(=O)c1ccc(CN(CC(O)CO)C(=O)Nc2ccc3c(c2)CCC3)cc1 (stereo not drawn) [Compound 1-16, N-(2-Aminophenyl)-4-[1-(2,3-dihydroxypropyl)-3-(indan-5-yl)ureidomethyl]benz-amide]
- CSI: 0.616

SMILES: CNCCN(Cc1ccc(C(=O)Nc2ccccc2N)cc1)C(=O)NC1CCCC1 [Compound 1-22, N-(2-Aminophenyl)-4-[3-cyclo-pentyl-1-(2-methylamino-ethyl)ureidomethyl]benz-amide]
- CSI: 0.619

SMILES: CNCCN(Cc1ccc(C(=O)Nc2ccccc2N)cc1)C(=O)Nc1ccc2c(c1)OCCO2 [Compound 1-23, N-(2-Aminophenyl)-4-[3-(2,3-dihydrobenzo[1,4]dioxin-6-yl)-1-(2-methylamino-ethyl)ureidomethyl]benzamide]
- CSI: 0.534

SMILES: CN(C)CCCN(Cc1ccc(C(=O)Nc2ccccc2N)cc1)C(=O)NCCc1ccccc1 [Compound 1-28, N-(2-Aminophenyl)-4-[1-(3-dimethylaminopropyl)-3-phenylethylureidomethyl]benz-amide]
- CSI: 0.514

SMILES: CN(C)c1ccc(NC(=O)N(CCCN2CCOCC2)Cc2ccc(C(=O)Nc3ccccc3N)cc2)cc1 [Compound 1-31, N-(2-Aminophenyl)-4-[3-(4-dimethylaminophenyl)-1-[3-(morpholin-4-yl)propyl]ureidomethyl]benzamide]
- CSI: 0.632

SMILES: Nc1ccccc1NC(=O)c1ccc(CN(CC2CCNCC2)C(=O)Nc2ccc(Cl)cc2)cc1 [Compound 1-34, N-(2-Aminophenyl)-4-[3-(4-chlorophenyl)-1-(piperidin-4-ylmethyl)ureidomethyl] benzamide]
- CSI: 0.681

SMILES: COc1ccc(NC(=O)N(Cc2ccc(C(=O)Nc3ccccc3N)cc2)CC(C)(C)CN(C)C)cc1OC [Compound 1-36, N-(2-Aminophenyl)-4-[3-(3,4-dimethoxyphenyl)-1-(3-dimethylamino-2,2-dimethyl-propyl)ureidomethyl]benzamide]
- CSI: 0.539

SMILES: CN(C)CC(C)(C)CN(Cc1ccc(C(=O)Nc2ccccc2N)cc1)C(=O)Nc1ccc(CC#N)cc1 [Compound 1-38, N-(2-Aminophenyl)-4-[3-(4-cyanomethylphenyl)-1-(3-dimethylamino-2,2-dimethyl-propyl)ureidomethyl]benz-amide]
- CSI: 0.616

SMILES: NCCCN(Cc1ccc(C(=O)Nc2ccccc2N)cc1)C(=O)Nc1ccc2c(c1)OCCO2 [Compound 1-39, N-(2-Aminophenyl)-4-[1-(3-aminopropyl)-3-(2,3-di-hydrobenzo[1,4]dioxin-6-yl)ureidomethyl]benzamide]
- CSI: 0.615

SMILES: CN(C)c1ccc(NC(=O)N(CCCN2CCCC2=O)Cc2ccc(C(=O)Nc3ccccc3N)cc2)cc1 [Compound 1-43, N-(2-Aminophenyl)-4-[3-(4-dimethylaminophenyl)-1-[3-(pyrrolidin-2-on-1-yl)propyl]ureidomethyl]benzamide]
- CSI: 0.679

SMILES: COC(=O)c1ccc(NC(=O)N(CCCN(C)C)Cc2ccc(C(=O)Nc3ccccc3N)cc2)cc1 [Compound 1-46, N-(2-aminophenyl)-4-[1-(3-dimethylaminopropyl)-3-(4-methoxycarbonylphenyl)ureidomethyl]benzamide]
- CSI: 0.581

SMILES: CN(C)c1ccc(NC(=O)N(CCO)Cc2ccc(C(=O)Nc3ccccc3N)cc2)cc1 [Compound 1-47, N-(2-Aminophenyl)-4-[3-(4-dimethylaminophenyl)-1-(2-hydroxyethyol)ureidomethyl] benzamide]
- CSI: 0.613

SMILES: Nc1ccccc1NC(=O)c1ccc(CN(CCO)C(=O)NCCc2ccccc2)cc1 [Compound 1-49, N-(2-Aminophenyl)-4-[1-(2-hydroxyethyl)-3-phenylethyl-ureidomethyl]benzamide]
- CSI: 0.630

SMILES: CCN1CCCC1CN(Cc1ccc(C(=O)Nc2ccccc2N)cc1)C(=O)Nc1ccc2c(c1)OCCO2 (stereo not drawn) [Compound 1-50, N-(2-Aminophenyl)-4-[3-(2,3-dihydrobenzo[1,4]dioxin-6-yl)-1-(1-ethylpyrrolidin-2-ylmethyl)ureidomethyl] benzamide]
- CSI: 0.617

SMILES: CN(C)CCCCN(Cc1ccc(C(=O)Nc2ccccc2N)cc1)C(=O)Nc1ccc(N(C)C)cc1 [Compound 1-53, N-(2-Aminophenyl)-4-[1-(4-dimethylaminobutyl)-3-(4-dimethylaminoiphenyl)ureido-methyl]benzamide]
- CSI: 0.538

SMILES: COc1cccc(NC(=O)N(CCCN2CCOCC2)Cc2ccc(C(=O)Nc3ccccc3N)cc2)c1 [Compound 1-58, N-(2-Aminophenyl)-4-[3-(3-methoxyphenyl)-1-[3-(mor-pholin-4-yl)propyl]ureido-methyl]benzamide]
- CSI: 0.610

SMILES: Nc1ccccc1NC(=O)c1ccc(CN(CCCN2CCOCC2)C(=O)Nc2ccc(OC(F)F)cc2)cc1 [Compound 1-60, N-(2-Aminophenyl)-4-[3-(4-difluoromethoxyphenyl)-1-[3-(morpholin-4-yl)propyl]ureidomethyl]benzamide]
- CSI: 0.608

SMILES: Nc1ccc(NC(=O)N(CCCN2CCOCC2)Cc2ccc(C(=O)Nc3ccccc3N)cc2)cc1 [Compound 1-66, N-(2-Aminophenyl)-4-[3-(4-aminophenyl)-1-[3-(mor-pholin-4-yl)propyl]ureidomethyl] benzamide]
- CSI: 0.624

SMILES: CN(C)CCCN(Cc1ccc(C(=O)Nc2ccccc2N)cc1)C(=O)Nc1cccc(OCc2ccccc2)c1 [Compound 1-76, N-(2-aminophenyl)-4-[3-(3-benzyloxyphenyl)-1-(3-dimethylaminopropyl)ureidomethyl]benzamide]
- CSI: 0.649

SMILES: CN1CCN(CCN(Cc2ccc(C(=O)Nc3ccccc3N)cc2)C(=O)Nc2ccc3c(c2)OCCO3)CC1 [Compound 1-94, N-(2-Aminophenyl)-4-[3-(2,3-dihydrobenzo[1,4]dioxin-6-yl)-1-[2-(4-methylpiper-azin-1-yl)ethyl]ureidomethyl] benzamide]
- CSI: 0.595

SMILES: CN1CCCC1CCN(Cc1ccc(C(=O)Nc2ccccc2N)cc1)C(=O)Nc1ccc(F)c(F)c1 (stereo not drawn) [Compound 1-97, N-(2-Aminophenyl)-4-[3-(3,4-difluorophenyl)-1-[2-(1-methylpyrrolidin-2-yl)-ethyl]ureidomethyl]benzamide]
- CSI: 0.595

SMILES: CN(C)CCCN(Cc1ccc(C(=O)Nc2ccccc2N)cc1)C(=O)Nc1ccc(F)c([N+](=O)[O-])c1 [Compound 1-102, N-(2-Aminophenyl)-4-[1-(3-dimethylaminopropyl)-3-(4-fluoro-3-nitrophenyl)ureido-methyl]benzamide]
- CSI: 0.538

SMILES: CN(C)CCCN(Cc1ccc(C(=O)Nc2ccccc2N)cc1)C(=O)Nc1cccnc1 [Compound 1-104, N-(2-Aminophenyl)-4-[1-(3-dimethylaminopropyl)-3-(pyridin-3-yl)ureidomethyl]-benzamide]
- CSI: 0.609

SMILES: COc1ccc(N)c(NC(=O)c2ccc(CN(CCN(C)C)C(=O)Nc3ccc4c(c3)CCC4)cc2)c1 [Compound 1-107, N-(2-Amino-5-methoxyphenyl)-4-[1-(2-dimethylamino-ethyl)-3-(indan-5-yl)ureod-methyl]benzamide]
- CSI: 0.663
